We go through 14 compounds from patent publication US11643413B2, “9-(2-oxacycloalkyl)-9H-purine-2,6-diamine derivatives and their use for the treatment of skin disorders” (UNIVERZITA PALACKEHO V OLOMOUCI, priority 2017, dated 2023).

Structures can show the parent of a compound that is named as a salt. Where two headings read alike, the source gives them in different places. Where only a bound is given, the exact number is not on record here.

The test system of data set [1] is NIH-3T3.
From the text: (§1) One of the parameters used, as the basis for cytotoxicity assays, is the metabolic activity of viable cells. For example, a microtiter assay, which uses the Calcein AM, is now widely used to quantitate cell proliferation and cytotoxicity. […] Because only metabolically active cells cleave Calcein AM, these assays detect viable cells exclusively. The quantity of reduced Calcein AM corresponds to the number of vital cells in the culture.
(§2) Mouse fibroblasts NIH3T3; mouse immortalized bone marrow macrophages B2.4 and B10A.4, and BJ (human foreskin fibroblasts) were used for routine screening of compounds. The cells were maintained in Nunc/Corning 80 cm^2 plastic tissue culture flasks and cultured in cell culture medium (DMEM with 5 g/l glucose, 2 mM glutamine, 100 U/ml penicillin, 100 μg/ml streptomycin, 10% fetal calf serum and sodium bicarbonate).
(§3) The cell suspensions that were prepared and diluted according to the particular cell type and the expected target cell density (2.500-30.000 cells per well based on cell growth characteristics) were added by pipette (80 μl) into 96/well microtiter plates. Inoculates were allowed a pre-incubation period of 24 hours at 37° C. and 5% CO2 for stabilisation. Four-fold dilutions of the intended test concentration were added at time zero in 20 μl aliquots to the microtiter plate wells. Usually, the compound tested was evaluated at six 4-fold dilutions. […] All compound concentrations were examined in duplicates. Incubations of cells with the tested compounds lasted for 72 hours at 37° C., in 5% CO2 atmosphere and 100% humidity. At the end of the incubation period, the cells were assayed by using Calcein AM. Ten microliters of the stock solution were pipetted into each well and incubated for 1 hour. Fluorescence (FD) was measured with the Labsystem FIA Reader Fluoroscan Ascent (UK).
Data set [2] has as its system B10A.4.
From the text: as §1, §2, §3
Data set [3] relates to BJ (human foreskin fibroblasts).
From the text: as §1, §2, §3
In data set [4] the test system is B10A.4. The source holds these as a separate data set.
From the text: as §1, §2, §3
Data set [5] relates to NIH3T3 fibroblasts. The data set is described as follows: Peroxidation of membrane lipids, MDA by TBA method. Type of data set: cell-based, mouse. To be noted: FW = fresh weight. Here is the method:
A typical symptom associated with aging is the direct consequence of increased concentrations of reactive oxygen species and lipid peroxidation. […] MDA levels were measured using thiobarbituric acid (TBA method). […] The crude extract was centrifuged at 10,000×g for 5 minutes and 100 μl aliquots of the supernatant were mixed with 100 μl of 0.5% (w/v) TBA containing 0.1% (w/v) trichloroacetic acid. The resulting solution was then incubated for 30 min at 95° C. The samples were rapidly cooled on ice and centrifuged for 5 minutes at 1000×g. […] The newly prepared derivatives of the general formula thus have a protective function against the negative effects of reactive oxygen species that accumulate strongly in the tissues.

Data set [6] deals with B10A.4. Put plainly: Calcein AM cytotoxicity, B10A.4 (second column). Conditions: read-out: Cytotoxicity IC50, B10A.4, 72 hours incubation, highest concentration […].
From the text: as §1, §2, §3
Data set [7] relates to B10A.4. The data set is described as follows: Calcein AM cytotoxicity, B10A.4 (first column). To be noted: read-out: Cytotoxicity IC50, B10A.4; 72 hours incubation, Calcein AM; highest concentration […].
From the text: as §1, §2, §3
For data set [8], the system named is NIH-3T3. The data set is described as follows: Calcein AM cytotoxicity, NIH-3T3. To be noted: read-out: Cytotoxicity IC50, NIH-3T3; 72 hours incubation, Calcein AM; highest concentration […].
From the text: as §1, §2, §3
Data set [9] concerns BJ (human foreskin fibroblasts). Put plainly: Calcein AM cytotoxicity, BJ. Conditions: read-out: Cytotoxicity IC50, BJ; 72 hours incubation, Calcein AM; highest concentration […].
From the text: as §1, §2, §3
The nature of data set [10]: Radical scavenging activity determined by ORAC. To be noted: relative to trolox; Mean ± SD (n = 3). The protocol: The ability of compounds to scavenge free radicals in vitro was determined by Oxygen Radical Absorbance Capacity (ORAC) method. In brief, fluorescein (100 μl, […]) and 25 μl of compound solution were added into each working well in a 96-well microplate preincubated at 37° C. Thereafter, 25 μL of 250 mM AAPH was quickly added, microplate was shaken for 5 s and the fluorescence (Ex. 485 nm, Em. 510 nm) was read every 3 min over 90 min by using microplate reader Infinite 200 (TECAN, Switzerland). The net area under the curve was used to express antioxidant activity relative to trolox which was used as a standard.

Data set [11] is described as follows: Calcein AM cytotoxicity, B10A.4 (first column). To be noted: mouse, B10A.4 immortalized bone marrow macrophages.
From the text: as §1, §2, §3
Data set [12] can be described thus: Calcein AM cytotoxicity, NIH-3T3. To be noted: mouse, NIH-3T3 fibroblasts.
From the text: as §1, §2, §3
Data set [13] can be described thus: Calcein AM cytotoxicity, BJ. To be noted: human, BJ foreskin fibroblasts.
From the text: as §1, §2, §3
Data set [14] relates to Rabbits (New Zealand Albino breed). Conditions: New Zealand Albino, rabbit, in vivo, 4 h. Here is the method: The test substance 114 was tested in Animal skin irritation test. Rabbits (New Zealand Albino breed) were used for the test. The test was performed according to ČSN EN ISO 10993 (Březen 2014): Biologické hodnoceni zdravotnických prostředků—část 10: Zkoušky dráždivosti a senzibilizace kůže, článek 6.3 Zkouška dráždivosti na zviřatech (Biological evaluation of medical devices—Part 10: Tests for irritation and delayed-type hypersensitivity). A dose 0.5 g of the test substance was applied to the skin of the back on each side of each rabbit. […] At first the one rabbit (test animal. No. 16) was used. Two other rabbits (rabbit No. 17 and No. 18) were used in confirmatory test. At the end of the contact time (4 hours) the dressings were removed and animals were examined for signs of erythema and oedema, and the response was evaluated at 1, 24, 48 and 72 hours afterpatches removal.

Turning to `Nc1ncnc2nc[nH]c12` [Adenine, reference compound], the IC50 in [1] (mouse, 72 h) was over 167 µM; in [2] (mouse, 72 h) it was over 167 µM; in [3] (human, 72 h) it was over 167 µM; in data set [4] (mouse, 72 h) it was over 167 µM.

In turn, `CC(C)=CCNc1nc(N(C)C)nc2c1ncn2C1CCO1` (stereo not drawn) [Compound 13] gave an MDA in data set [5] of 13.1 nmol/g FW. The IC50 in data set [6], in data set [7], in data set [8] and in data set [9] was over 167 µM in each case.

Turning to `CCN(CC)c1nc(NCC=C(C)C)c2ncn(C3CCO3)c2n1` (stereo not drawn) [Compound 14], the MDA in data set [5] came to 11.4 nmol/g FW. The IC50 in [6], in data set [7], in data set [8] and in data set [9] was over 167 µM in each case.

In turn, `CN(C)c1nc(NCc2ccco2)c2ncn(C3CCCO3)c2n1` (stereo not drawn) [Compound 30, 2-(Dimethylamino)-6-furfurylamino-9-(tetrahydrofuran-2-yl)-9H-purine] displayed an MDA in data set [5] of 12.6 nmol/g FW. The “ORAC (compound/trolox)” value in [10] was determined as 0.292 ± 0.006. Moreover, the IC50 at 72 h in data set [11], in [12] and in data set [13] was over 167 µM throughout.

For `Cc1ccc(CNc2nc(N(C)C)nc3c2ncn3C2CCCO2)o1` (stereo not drawn) [Compound 46, 2-(Dimethylamino)-6-[(5-methylfurfuryl)amino]-9-(tetrahydrofuran-2-yl)-9H-purine], in data set [5], the MDA amounted to 11.2 nmol/g FW. Moreover, the “ORAC (compound/trolox)” value in [10] came to 0.14 ± 0.004. Further, the IC50 at 72 h in [11], in data set [12] and in [13] was over 167 µM in each case.

As to `CNc1nc(NCc2occc2OC)c2ncn(C3CCCO3)c2n1` (stereo not drawn) [Compound 49], the MDA in data set [5] is 12.3 nmol/g FW. In addition, the IC50 in data set [1], in data set [2], in data set [3] and in data set [4] was over 167 µM each time.

`CNc1nc(NCc2ccc(OC)cc2)c2ncn(C3CCCO3)c2n1` (stereo not drawn) [Compound 84, 2-(Methylamino)-6-[(4-methoxybenzyl)amino]-9-(tetrahydrofuran-2-yl)-9H-purine] yielded an MDA in [5] of 10.6 nmol/g FW. Besides, the IC50 at 72 h in data set [11], in [12] and in data set [13] was over 167 µM throughout.

The compound `CCNc1nc(NCc2ccco2)c2ncn(C3CCCCO3)c2n1` (stereo not drawn) [Compound 111, 2-(ethylamino)-6-furfurylamino-9-(tetrahydro-2H-pyran-2-yl)-9H-purine] came in with an MDA in data set [5] of 10.3 nmol/g FW. Also, the IC50 at 72 h in data set [11], in [12] and in data set [13] was over 167 µM each time.

As to `CN(C)CCNc1nc(NCc2ccco2)c2ncn(C3CCCCO3)c2n1` (stereo not drawn) [Compound 116, 2-{[2-(Dimethylamino)ethyl]amino}-6-furfurylamino-9-(tetrahydro-2H-pyran-2-yl)-9H-purine], in data set [5], the MDA is 9.2 nmol/g FW. In addition, the “ORAC (compound/trolox)” value in data set [10] is recorded as 2.475 ± 0.086. Besides, the IC50 at 72 h in data set [11], in data set [12] and in data set [13] was over 167 µM each time.

Regarding `Cc1ccc(CNc2nc(NCCN(C)C)nc3c2ncn3C2CCCCO2)o1` (stereo not drawn) [Compound 132], the MDA in data set [5] is 10.7 nmol/g FW. Besides, the IC50 in [7], in data set [8] and in data set [9] was over 167 µM in each case.

Compound `c1coc(CNc2ncnc3nc[nH]c23)c1` [Kinetin, N^6-furfuryladenine, reference compound] had an MDA in data set [5] of 14.2 nmol/g FW. Also, the IC50 in data set [6] is 164 µM; in data set [7], over 167 µM; in [8], 133 µM; in [9], 148 µM.

Turning to `CC(C)=CCNc1ncnc2nc[nH]c12` [isopentenyladenine, reference compound], the IC50 in data set [1] was 124 µM; in data set [2], over 167 µM; in data set [3] it was 134 µM; in data set [4], 147 µM.

For `CCCCCCCCCCCCOS(=O)(=O)O` [lauryl sulfate, reference compound], in data set [14], the “Primary Irritation Index” value was 1.67.

On to `Oc1cccc(CNc2ncnc3nc[nH]c23)c1` [meta-topolin, reference compound], for which the IC50 in data set [1] was at least 167 µM; in data set [2], over 167 µM; in [3], 166 µM; in data set [4] it was at least 178 µM.
